Tests used:
[1] = cited from earlier work
[2] = tested on: Human melanoma (A375), breast cancer (MCF7), lung cancer (A549), and colon cancer (HT29) cell lines; test: Necrosis induction (LDH released to the extracellular medium); type: cell-based; settings: with increasing concentration; FIG. 10
Method: Necrosis induction was evaluated by measuring lactate dehydrogenase (LDH) activity released to the extracellular medium. Cells were exposed to polyphenols for 24-72 h. Results are expressed as relative LDH activity±SD (n=3) where control is 100.
The tumor cell death induced by pterostilbene appears to be partially independent of caspase activity.

human tumor cells = test: Autophagy activation (LC3-II, P62/SQSTM1, GFP-LC3); type: cell-based; settings: at bioavailable concentrations
Source text: In addition, there are different molecular events associating pterostilbene with autophagy activation: a) an increase of LC3-II form, indicating the processing of LC3 protein to its lapidated form; and b) an increase in P62/SQSTM1 bands and GFP-LC3 punctuation, indicating P62 accumulation and translocation of LC3 to autophagic membranes, respectively. An acute loss of tubulin organization, indicating cell cycle arrest, was also detected by immunochemistry.

SMILES	reduction in glomerular flow rate ([1]; 1400 mg QUER/m^2, the two affected patients, first 24 hours)	tolerability ([1]; daily i.v. bolus doses of 100 mg QUER/m2, human patients)	renal toxicity ([1]; i.v. bolus of 1400 mg QUER/m^2 once weekly for three weeks)	Necrosis (LDH activity released to the extracellular medium) [2]	autophagy (human tumor cells)
O=c1c(O)c(-c2ccc(O)c(O)c2)oc2cc(O)cc(O)c12 [QUER, quercetin]	~20%	well tolerated	two of ten patients	–	–
Oc1ccc(/C=C/c2cc(O)cc(O)c2)cc1 [RI, trans-3,5,4′-trihydroxystilbene, reference compound]	–	–	–	progressively activated	–
COc1cc(/C=C/c2ccc(O)cc2)cc(OC)c1 [t-PTER, trans-3,5-dimethoxy-4′-hydroxystilbene]	–	–	–	progressively activated	activates autophagy
